# From ChEMBL document CHEMBL3988442, “University of Dundee, Small-Polar-MMV Screening Library” (2021)
# Values joined by “and” are separate entries in the source; they are usually repeats but may differ in a detail not shown here. Equal values may be shown once.
# Columns and labels:
# Plasmodium falciparum = test: Calibr Malaria Delayed Death Assay SOP; type: functional, organism-based; conditions: for IC50: Plasmodium falciparum
# [1] = target: T1, Coenzyme A biosynthesis bifunctional protein CoaBC (Mycobacterium tuberculosis (strain ATCC 25618 / H37Rv), UniProt P9WNZ1); test: Biomol Green assay for MtCoaBC inhibitor, OD650 read; type: functional
# T1 sequence (P9WNZ1 whole entry): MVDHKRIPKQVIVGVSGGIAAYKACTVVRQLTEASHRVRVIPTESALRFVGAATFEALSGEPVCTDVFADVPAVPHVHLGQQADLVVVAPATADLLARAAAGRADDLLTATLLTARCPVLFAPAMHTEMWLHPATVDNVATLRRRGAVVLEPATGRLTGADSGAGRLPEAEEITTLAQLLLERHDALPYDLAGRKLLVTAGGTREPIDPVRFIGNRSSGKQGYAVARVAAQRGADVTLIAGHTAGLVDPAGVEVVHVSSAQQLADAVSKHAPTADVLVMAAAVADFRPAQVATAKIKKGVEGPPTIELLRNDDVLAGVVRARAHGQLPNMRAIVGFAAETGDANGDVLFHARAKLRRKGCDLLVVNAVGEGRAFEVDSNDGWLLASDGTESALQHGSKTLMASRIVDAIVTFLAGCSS
# Histidine--tRNA ligase [2] = target: T2, Histidine--tRNA ligase (Leishmania infantum, UniProt A4I591); test: Leishmania infantum Histidine tRNA synthetase (LdHisRS); type: functional
# T2 sequence (A4I591 whole entry): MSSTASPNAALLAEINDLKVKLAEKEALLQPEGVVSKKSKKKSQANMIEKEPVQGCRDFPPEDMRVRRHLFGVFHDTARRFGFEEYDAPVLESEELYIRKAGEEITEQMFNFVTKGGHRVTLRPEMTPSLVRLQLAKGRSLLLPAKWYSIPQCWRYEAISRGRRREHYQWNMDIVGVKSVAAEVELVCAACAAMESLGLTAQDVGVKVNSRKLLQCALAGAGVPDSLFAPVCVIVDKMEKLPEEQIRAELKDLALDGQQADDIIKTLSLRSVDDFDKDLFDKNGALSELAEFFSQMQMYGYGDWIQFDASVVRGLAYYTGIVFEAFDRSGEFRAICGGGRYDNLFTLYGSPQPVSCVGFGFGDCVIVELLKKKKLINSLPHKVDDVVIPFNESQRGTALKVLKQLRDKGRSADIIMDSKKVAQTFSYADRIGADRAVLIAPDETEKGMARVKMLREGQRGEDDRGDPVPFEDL
# Histidine--tRNA ligase [3] = target: T3, Histidine--tRNA ligase (Trypanosoma cruzi (strain CL Brener), UniProt Q4DA54); test: Trypanosoma cruzi histidyl tRNA synthetase (Tc-HisRS); type: functional
# T3 sequence (Q4DA54 whole entry): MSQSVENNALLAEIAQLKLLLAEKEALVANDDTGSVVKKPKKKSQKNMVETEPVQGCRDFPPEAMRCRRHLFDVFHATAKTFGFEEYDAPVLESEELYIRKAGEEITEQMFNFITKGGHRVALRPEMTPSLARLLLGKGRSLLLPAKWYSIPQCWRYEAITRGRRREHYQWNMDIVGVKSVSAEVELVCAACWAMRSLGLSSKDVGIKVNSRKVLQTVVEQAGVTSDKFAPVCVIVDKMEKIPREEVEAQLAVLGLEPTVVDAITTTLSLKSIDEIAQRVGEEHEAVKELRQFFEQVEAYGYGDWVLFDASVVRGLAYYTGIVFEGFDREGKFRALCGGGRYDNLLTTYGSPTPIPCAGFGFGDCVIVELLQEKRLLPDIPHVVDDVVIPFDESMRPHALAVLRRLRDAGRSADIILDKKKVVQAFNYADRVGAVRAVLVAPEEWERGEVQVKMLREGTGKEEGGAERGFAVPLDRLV
# Trypanosoma brucei = test: Trypanosoma brucei 72 hour study; type: functional, organism-based; conditions: for IC50: Trypanosoma brucei, 72 h
# Leishmania donovani = test: Leishmania intramacrophage assay; type: functional, organism-based; conditions: for IC50: Leishmania donovani
# Lysine--tRNA ligase = Lysine--tRNA ligase (Plasmodium falciparum (isolate 3D7), UniProt Q8IDJ8); test: Pf-KRS-1 (Lysyl-RNA Synthetase-1, KRS-1, cytosolic KRS) from Plasmodium falciparum. Inhibitor assay, 384 well plate, luminescence read.; type: functional
# Lysine--tRNA ligase, sequence (Q8IDJ8 whole entry): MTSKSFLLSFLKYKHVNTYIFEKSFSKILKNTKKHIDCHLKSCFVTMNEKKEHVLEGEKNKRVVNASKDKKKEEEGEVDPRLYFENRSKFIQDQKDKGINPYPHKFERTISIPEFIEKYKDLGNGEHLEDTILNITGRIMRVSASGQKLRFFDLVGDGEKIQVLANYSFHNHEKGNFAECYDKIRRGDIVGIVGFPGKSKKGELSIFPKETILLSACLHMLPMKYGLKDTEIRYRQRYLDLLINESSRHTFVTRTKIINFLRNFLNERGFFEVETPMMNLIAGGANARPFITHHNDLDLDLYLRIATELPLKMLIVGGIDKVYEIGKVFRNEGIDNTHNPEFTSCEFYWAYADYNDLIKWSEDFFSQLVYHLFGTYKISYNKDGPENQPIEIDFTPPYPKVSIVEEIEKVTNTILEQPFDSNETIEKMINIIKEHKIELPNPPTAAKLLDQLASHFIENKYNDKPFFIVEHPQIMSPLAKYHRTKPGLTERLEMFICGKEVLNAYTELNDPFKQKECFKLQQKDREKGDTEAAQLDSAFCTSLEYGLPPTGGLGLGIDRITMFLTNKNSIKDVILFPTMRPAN
# [4] = target: Polyketide synthase Pks13 (Mycobacterium tuberculosis (strain ATCC 25618 / H37Rv), UniProt I6X8D2); test: Mycobacterium tuberculosis Polyketide synthase 13 Thioesterase (PKS13); type: functional
# Polyketide synthase Pks13, sequence (I6X8D2 whole entry): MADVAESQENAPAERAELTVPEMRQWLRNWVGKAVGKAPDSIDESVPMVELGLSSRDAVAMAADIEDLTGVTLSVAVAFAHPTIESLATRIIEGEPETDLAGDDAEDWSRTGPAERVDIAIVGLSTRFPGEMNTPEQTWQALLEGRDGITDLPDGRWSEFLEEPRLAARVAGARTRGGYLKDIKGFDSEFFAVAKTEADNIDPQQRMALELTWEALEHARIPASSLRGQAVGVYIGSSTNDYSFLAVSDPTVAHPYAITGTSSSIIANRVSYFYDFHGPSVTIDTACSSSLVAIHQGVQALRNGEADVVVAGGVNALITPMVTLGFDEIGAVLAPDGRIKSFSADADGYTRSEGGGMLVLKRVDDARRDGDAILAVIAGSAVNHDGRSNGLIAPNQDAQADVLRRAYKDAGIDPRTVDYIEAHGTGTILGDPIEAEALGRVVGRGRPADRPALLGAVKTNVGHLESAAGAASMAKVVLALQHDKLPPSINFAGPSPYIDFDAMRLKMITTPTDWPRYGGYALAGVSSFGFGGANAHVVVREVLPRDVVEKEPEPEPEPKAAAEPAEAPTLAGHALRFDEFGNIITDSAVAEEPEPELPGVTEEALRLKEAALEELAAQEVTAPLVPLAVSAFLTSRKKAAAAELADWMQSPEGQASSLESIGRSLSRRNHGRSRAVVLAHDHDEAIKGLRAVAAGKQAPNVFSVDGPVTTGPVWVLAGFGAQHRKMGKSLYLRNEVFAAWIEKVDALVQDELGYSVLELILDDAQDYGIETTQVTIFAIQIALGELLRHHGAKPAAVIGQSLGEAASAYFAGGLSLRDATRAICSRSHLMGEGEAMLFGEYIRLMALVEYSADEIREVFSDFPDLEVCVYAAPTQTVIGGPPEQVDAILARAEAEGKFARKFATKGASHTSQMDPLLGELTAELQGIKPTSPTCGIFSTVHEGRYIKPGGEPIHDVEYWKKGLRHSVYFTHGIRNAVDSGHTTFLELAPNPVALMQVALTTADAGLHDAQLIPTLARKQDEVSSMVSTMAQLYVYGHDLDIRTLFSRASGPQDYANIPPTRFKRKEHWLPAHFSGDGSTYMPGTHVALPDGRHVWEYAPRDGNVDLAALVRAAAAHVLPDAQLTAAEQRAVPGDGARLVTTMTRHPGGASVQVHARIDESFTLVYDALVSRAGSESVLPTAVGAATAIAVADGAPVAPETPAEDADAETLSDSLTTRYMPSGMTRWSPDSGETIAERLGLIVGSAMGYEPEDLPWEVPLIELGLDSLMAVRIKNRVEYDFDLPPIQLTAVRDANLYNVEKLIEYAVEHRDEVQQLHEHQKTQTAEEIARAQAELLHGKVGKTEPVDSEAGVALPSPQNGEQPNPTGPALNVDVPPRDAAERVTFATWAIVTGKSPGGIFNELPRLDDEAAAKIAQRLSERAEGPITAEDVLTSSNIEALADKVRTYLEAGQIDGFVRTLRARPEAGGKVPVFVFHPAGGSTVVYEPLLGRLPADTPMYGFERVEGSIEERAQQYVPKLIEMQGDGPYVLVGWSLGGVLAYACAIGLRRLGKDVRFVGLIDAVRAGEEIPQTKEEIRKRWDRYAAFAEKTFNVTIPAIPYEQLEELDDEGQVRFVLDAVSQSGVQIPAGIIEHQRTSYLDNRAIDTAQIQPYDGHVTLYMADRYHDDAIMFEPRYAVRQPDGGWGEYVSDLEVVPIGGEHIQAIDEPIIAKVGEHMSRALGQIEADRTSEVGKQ
# [5] = target: T4, Ubiquitin-activating enzyme e1, putative (Leishmania donovani (strain BPK282A1), UniProt E9BSI1); test: Leishmania donovani Ubiquitin Activating Enzyme (LdE1); type: functional
# T4 sequence (E9BSI1 whole entry): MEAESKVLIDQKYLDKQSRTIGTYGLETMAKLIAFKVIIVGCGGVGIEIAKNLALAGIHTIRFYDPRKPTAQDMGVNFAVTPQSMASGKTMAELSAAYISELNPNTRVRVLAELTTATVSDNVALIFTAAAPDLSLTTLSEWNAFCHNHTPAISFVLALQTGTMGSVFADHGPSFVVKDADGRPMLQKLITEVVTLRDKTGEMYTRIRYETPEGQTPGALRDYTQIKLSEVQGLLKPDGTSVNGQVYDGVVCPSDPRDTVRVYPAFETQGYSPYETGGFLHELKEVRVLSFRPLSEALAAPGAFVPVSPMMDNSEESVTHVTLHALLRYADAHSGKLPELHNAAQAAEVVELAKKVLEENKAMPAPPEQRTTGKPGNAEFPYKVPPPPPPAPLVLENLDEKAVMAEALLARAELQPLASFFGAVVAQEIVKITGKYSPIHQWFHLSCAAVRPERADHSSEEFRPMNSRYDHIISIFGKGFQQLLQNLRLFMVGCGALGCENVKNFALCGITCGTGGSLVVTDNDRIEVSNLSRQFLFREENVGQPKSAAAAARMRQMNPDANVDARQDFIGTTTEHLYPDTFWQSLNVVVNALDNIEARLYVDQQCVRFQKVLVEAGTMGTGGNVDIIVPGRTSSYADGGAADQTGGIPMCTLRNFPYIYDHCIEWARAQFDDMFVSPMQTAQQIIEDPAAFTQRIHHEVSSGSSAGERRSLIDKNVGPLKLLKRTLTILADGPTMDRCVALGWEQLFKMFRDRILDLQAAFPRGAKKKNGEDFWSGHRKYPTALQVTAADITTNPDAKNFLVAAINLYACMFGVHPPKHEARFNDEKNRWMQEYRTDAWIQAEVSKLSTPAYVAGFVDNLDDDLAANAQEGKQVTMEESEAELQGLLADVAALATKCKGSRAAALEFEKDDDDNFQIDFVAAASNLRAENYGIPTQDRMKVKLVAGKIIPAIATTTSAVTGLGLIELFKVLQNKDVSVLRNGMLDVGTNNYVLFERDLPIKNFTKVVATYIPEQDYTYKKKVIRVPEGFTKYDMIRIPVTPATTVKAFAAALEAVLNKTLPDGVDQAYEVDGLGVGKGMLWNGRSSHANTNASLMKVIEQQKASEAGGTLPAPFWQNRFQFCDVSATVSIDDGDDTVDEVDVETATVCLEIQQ
SMILES,IC50 (Histidine--tRNA ligase [2]),IC50 (Histidine--tRNA ligase [3]),pIC50 (Trypanosoma brucei),IC50 (Trypanosoma brucei) [µM],IC50 (Lysine--tRNA ligase) [µM],other results
NCC1Cc2cc(-c3nccc(N4CCC(O)CC4)n3)cc(Cl)c2O1 (stereo not drawn),20.9 µM and 21 µM,48.1 µM and 22.3 µM,–,–,–,pIC50 (Plasmodium falciparum): 6.303; IC50 (Plasmodium falciparum): 0.545 µM; IC50 [1]: > 30.2 µM
CN1CCN(CC(NCc2cccc(O)c2)c2ccccc2)CC1 (stereo not drawn),–,–,5.312 and 5.375,4.3,–,IC50 (Leishmania donovani): 13.7 µM
COCCN(CC1CC1)c1nc(CCN)nc2sc(C)c(C)c12,–,–,4.814 and 4.866,16.2,–,IC50 (Leishmania donovani): > 25.1 µM
Cc1cc(=O)n(C)cc1NC(=O)Cc1cccc(F)c1,7.6 µM and 8.67 µM,6.21 µM,–,–,> 50.1,–
OC(CNc1nc(C2CCCC2)nc2c1CCNCC2)C(F)(F)F (stereo not drawn),–,–,5.186 and 5.15,6.61,–,pIC50 (Leishmania donovani): 4.72 and 4.703; IC50 (Leishmania donovani): 18.4 µM
O=C(NCCc1ccn(-c2ccccc2)n1)N1CCC1,–,–,6.164 and 6.213,0.53,–,–
CCCn1cc(NC(=O)c2ccc(S(=O)(=O)CC)cc2)ccc1=O,1.47 µM and 1.05 µM and 2.81 µM and 2.06 µM,2.37 µM and 2.75 µM,–,–,> 50.1,–
COc1ccc(CNC(=O)Nc2ccc(=O)n(C)c2)cc1,1.74 µM and 2.25 µM and 1.76 µM and 2.08 µM,5.8 µM and 5.68 µM,–,–,> 50.1,–
Cc1cnc(N2CCC3(CCN(CC4CC4)C3=O)CC2)nc1,–,> 100 µM,–,–,–,IC50 [4]: > 100 µM
CCOC1CCN(C(=O)Nc2ccc(=O)n(C)c2)CC1,0.995 µM and 1.6 µM and 2.46 µM and 3.11 µM,23.9 µM and 23.3 µM,–,–,–,IC50 [5]: > 100 µM
COCC(C)NCc1nc(-c2ccc(C)cc2)c(-c2ccccn2)[nH]1 (stereo not drawn),–,–,–,> 50.1,–,pIC50 (Leishmania donovani): 4.597; IC50 (Leishmania donovani): 16 µM
Cc1nc(C2(O)CCCNCC2)sc1CCOc1ccccc1F.Cl (stereo not drawn),–,–,4.648 and 4.682,21.9,–,–
Cn1cc(NC(=O)N2CCC2c2ccccc2)ccc1=O (stereo not drawn),7.08 µM and 6.57 µM,27.5 µM and 31.2 µM,–,–,> 50.1,IC50 [5]: > 100 µM
Cn1cc(NC(=O)N2CCC(OCc3ccccc3)CC2)ccc1=O,11.6 µM and 6.66 µM,17 µM and 14.8 µM,–,–,–,IC50 [5]: > 100 µM
Cn1cc(NC(=O)N2CCCC2c2ccccn2)ccc1=O (stereo not drawn),2.71 µM and 1.57 µM and 2.82 µM and 1.51 µM,9.32 µM and 9.24 µM,–,–,> 50.1,–
Cc1cc(=O)n(C)cc1NC(=O)Cc1cc(F)ccc1F,1.69 µM and 2.09 µM and 0.814 µM and 0.806 µM,21.1 µM,–,–,> 50.1,–
COc1cccn(CC(=O)N2CCC3(CCNCC3)C2)c1=O,3.66 µM and 3.72 µM,6.27 µM and 15.2 µM,–,–,> 50.1,–
NCC1Cc2cc(-c3nccc(N4CCC(O)CC4)n3)cc(F)c2O1 (stereo not drawn),31.2 µM and 28.1 µM,20.1 µM and 18.7 µM,–,–,–,pIC50 (Plasmodium falciparum): 6.277; IC50 (Plasmodium falciparum): 0.569 µM; IC50 [1]: > 30.2 µM
CCOC1CCCN(C(=O)NCCc2ccn(-c3ccccc3)n2)C1 (stereo not drawn),–,–,6.745 and 6.727,0.141,–,–
COc1ccc(-c2nc(CN3CCCC(OC)C3)c(C)o2)c(F)c1 (stereo not drawn),–,–,5.649 and 5.647,2.36,–,pIC50 (Leishmania donovani): 4.638; IC50 (Leishmania donovani): 30.9 µM
